Laboratory results: article PMC5612938, “A multiple biomarker assay for quality assessment of botanical drugs using a versatile microfluidic chip” (Scientific Reports, 2017)
pIC50: −log10 of the molar value. Marks after values point to notes of the source that are not given here.

Experiments:
[1] = molecular target: T1, Thrombin (from human plasma) (Homo sapiens, UniProt P00734); assay: on-chip thrombin inhibition assay (S-2238 hydrolysis, absorbance 405 nm); assay type: biochemical; set-up: key to IC50 (μM) or inhibition rate: /: No obvious inhibition observed; conditions: for thrombin inhibition (in words): at tested concentrations
T1 construct: Thrombin (from human plasma); purchased Sigma-Aldrich; host or cells: human plasma
Description: To enhance the performance of the on-chip assay, experimental parameters such as concentrations of enzymes and substrates, substrate reaction time, and incubation time of samples and enzymes were stepwise optimized. The activity of thrombin was determined by measuring the hydrolysis of chromogenic substrate S-2238 (HD-Phe-Pip-Arg-pNA) at 405 nm. As depicted in Fig. 2a, the absorbance increased rapidly along with the elevated concentrations of thrombin, while it reached a plateau at 0.5 U/mL. […] Moreover, it was clear from Fig. 2d that the maximum inhibitory effect of QSYQ sample (I1 of Table 1 in this assay) on thrombin was observed after 60 min of incubation. Therefore, to achieve favorable response and prevent signal saturation, optimal assay conditions for thrombin were determined to be 0.2 U/mL, 0.31 mM, 30 min and 60 min for the final concentrations of thrombin and S-2238, substrate reaction time and incubation time, respectively. […] In this assay, the concentrations of ACE and FAPGG were finally set at 0.027 U/mL and 0.72 mM, where the background value was lower and the reaction time was relatively shorter (30 min).
The optimized protocol was first applied to assess the quality of 11 batches of QSYQ intermediates (Table 1). Enzyme inhibition (in percentages) was employed as an indicator of drug quality and calculated according to the following equations: thrombin inhibition (%) = [1 − (AQSYQ/Ablank)] × 100; ACE inhibition (%) = [1 − (ΔAQSYQ/ΔAblank)] × 100; where AQSYQ and Ablank were the absorbance of the test sample and the blank sample after the enzymatic reaction (the background value was subtracted), and ΔAQSYQ and ΔAblank were the absorbance decrease between 0 min and 30 min of the samples. A scatter plot was generated to display the inhibition result of thrombin and ACE simultaneously. […] Moreover, artificial abnormal samples I6, I7 and I8, each with one abnormal (pre-extracted) herb, presented relatively lower inhibitions compared with I1.
Thrombin (from human plasma), ACE (from rabbit lung), FAPGG and captopril were purchased from Sigma-Aldrich (St. Louis, USA). S-2238 was obtained from Aglyco (Beijing, China). AEBSF-HCl was purchased from Selleckchem (Houston, USA). Trizma base (Tris) was obtained from Sangon Biotech (Shanghai, China) and dimethyl sulfoxide (DMSO) from J&K Scientific (Beijing, China). All other chemicals were purchased from Sinopharm Chemical (Shanghai, China) unless otherwise indicated. 0.2 M Phosphate buffer (PB, pH 6.5), and 50 mM Tris-HCl buffer (200 mM NaCl, pH 8.3) were prepared as assay buffers for thrombin and ACE, respectively.
MBs (10 mg/mL) were diluted 10 times in PB or Tris-HCl buffer, and 10 μL of the diluted MBs (1 mg/mL) were injected into one channel of the chip using a syringe infusion pump (Harvard Apparatus, USA) and retained by an external magnet. Then, 10 μL of thrombin or ACE solution was added and incubated with MBs for two hours at room temperature to form enzyme-MB complexes. The magnet was manually controlled to move MBs back and forth to enhance the ratio of reaction. Subsequently, MBs were washed twice in assay buffer and magnetically transferred to the other channel through the fluidic bridge, whose opening and closing was controlled by a pneumatic valve. Next, 10 μL of sample solutions of tested drug and 10 μL of enzymatic substrate were sequentially infused to the channel by the pump and incubated with the enzyme. When the enzymatic reaction was finished, the MBs were retained in the channel, and air was injected into the channel from the inlet using a syringe to push all the reacted solution to a 384-well plate. The absorbance of the solution was then monitored at 405 nm (for S-2238) or 340 nm (for FAPGG) using an Infinite F200 spectrophotometer (Tecan, Männedorf, Switzerland). Moreover, after detection, the reaction channel was washed three times by assay buffer to remove unbound constituents. […]

[2] = molecular target: T1, Thrombin (from human plasma); assay: on-chip affinity screening, binding degree by LC-MS peak area vs protein-free control (thrombin); conditions: for thrombin; [(As − Ac)/As] × 100, sample vs protein-free control, EIC peak area
Description: In addition to quality assessment, the microfluidic chip can also function as “affinity chromatography” to identify bioactive constituents from botanical drugs in a convenient and efficient manner. After the bioassay, the bound phytochemicals were dissociated from the enzymes and accurately identified by LC-MS. The material used for the chambers in microfluidic system, polydimethylsiloxane (PDMS), is apt to adsorb small molecules nonspecifically, thus a protein-free control was applied to reflect the degree of nonspecific binding of compounds to the chip. Peak areas were obtained from the extracted ion chromatography (EIC) in an ion-trap mass spectrometry (IT-MS), and binding degree (binding degree % = [(As − Ac)/As] × 100, where As and Ac were the peak area in the sample and control, respectively) was calculated to indicate binding specificity. […] All these peaks were unambiguously confirmed via comparisons with chemical standards in terms of retention time and mass spectra (Table 2), and five thrombin inhibitors (danshensu, salvianolic acid B, salvianolic acid C, rosmarinic acid and ginsenoside Rg1) and six ACE inhibitors (astragaloside IV, ononin, formononetin, calycosin, danshensu and salvianolic acid B) were preliminarily identified. […] Enzyme inhibition assays of these hit compounds were then performed to verify the screening results. […] Compounds showing an inhibition rate over 70% were subjected to IC50 measurement.
MBs (10 mg/mL) were diluted 10 times in PB or Tris-HCl buffer, and 10 μL of the diluted MBs (1 mg/mL) were injected into one channel of the chip using a syringe infusion pump (Harvard Apparatus, USA) and retained by an external magnet. Then, 10 μL of thrombin or ACE solution was added and incubated with MBs for two hours at room temperature to form enzyme-MB complexes. The magnet was manually controlled to move MBs back and forth to enhance the ratio of reaction. Subsequently, MBs were washed twice in assay buffer and magnetically transferred to the other channel through the fluidic bridge, whose opening and closing was controlled by a pneumatic valve. Next, 10 μL of sample solutions of tested drug and 10 μL of enzymatic substrate were sequentially infused to the channel by the pump and incubated with the enzyme. When the enzymatic reaction was finished, the MBs were retained in the channel, and air was injected into the channel from the inlet using a syringe to push all the reacted solution to a 384-well plate. The absorbance of the solution was then monitored at 405 nm (for S-2238) or 340 nm (for FAPGG) using an Infinite F200 spectrophotometer (Tecan, Männedorf, Switzerland). Moreover, after detection, the reaction channel was washed three times by assay buffer to remove unbound constituents. 20 μL of 80% aqueous methanol was then injected and incubated with MBs for one hour to dissociate the bound constituents. The resulting solutions of replicates were combined, evaporated by a centrifugal evaporator, reconstituted in 80% aqueous methanol, centrifuged at 10,000 rpm for 10 min, and analyzed by LC-MS for chemical identification.
An Agilent 1100 HPLC system (Agilent Technologies, Waldbronn, Germany) coupled with an LCQ Deca XP^plus IT-MS (Thermo Finnigan, San Jose, CA, USA) equipped with an electrospray ionization (ESI) interface was employed for structure elucidation of the bounded constituents. […]

Row | Binding degree (%) [2] | thrombin inhibition (in words) [1] | pIC50 ([1]; for thrombin) | Structure (SMILES) | IC50 (μM) or inhibition rate ([1]; for thrombin, symbol / = no obvious inhibition)
1 | 67.4^c % | good thrombin inhibitions | 4.04 | O=C(/C=C/c1ccc(O)c(O)c1)O[C@H](Cc1ccc(O)c(O)c1)C(=O)O [Rosmarinic acid] | 
2 | 100^c % | good thrombin inhibitions | 3.74 | O=C(/C=C/c1ccc(O)c2oc(-c3ccc(O)c(O)c3)cc12)O[C@H](Cc1ccc(O)c(O)c1)C(=O)O [Salvianolic acid C] | 

Row | Structure (SMILES) | Binding degree (%) [2] | thrombin inhibition (in words) [1] | pIC50 ([1]; for thrombin) | IC50 (μM) or inhibition rate ([1]; for thrombin, symbol / = no obvious inhibition)
3 | CC(C)=CCC[C@](C)(O[C@@H]1O[C@H](CO)[C@@H](O)[C@H](O)[C@H]1O)[C@H]1CC[C@]2(C)[C@@H]1[C@H](O)C[C@@H]1[C@@]3(C)CC[C@H](O)C(C)(C)[C@@H]3[C@@H](O[C@@H]3O[C@H](CO)[C@@H](O)[C@H](O)[C@H]3O)C[C@]12C [Ginsenoside Rg1] | 20.6^c % |  |  | /^g
